{"source": "the supplement of paper PMC10307832", "test_in_all_cases": "relative viability (nuclei count vs DMSO), 5 days (fraction); higher = more cells survive", "key": {"[1]": {"compound": "CC1=CC=C(C=C1)C(=O)CN2C3=C(CCCC3)SC2=N [Pifithrin_alpha] + COc1cccc2cc(-c3nc([C@H]4CC[C@H](C(=O)O)CC4)n4ncnc(N)c34)[nH]c12 [OSI-027] (partner 0.5 µM)", "outline": "(§1)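 Cells from lung cancer lines were seeded into 1536-well plates and, one day later, dosed by pin tool. Treatments were either a single drug or a fixed dose of an anchor drug with five library-drug doses (not always all listed) in √10 steps. After 5 days, nuclei were stained in a one-step fixation (final 0.05% Triton X-100, 1% formaldehyde, 1 ug/ml Hoechst) and counted on 4× images, and relative viability is the treated-to-vehicle nuclei ratio, as the median of duplicate plates.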"}, "Axitinib + Olaparib": {"compound": "CNC(=O)c1ccccc1Sc1ccc2c(/C=C/c3ccccn3)n[nH]c2c1 [Axitinib] + O=C(c1cc(Cc2n[nH]c(=O)c3ccccc23)ccc1F)N1CCN(C(=O)C2CC2)CC1 [Olaparib] (partner 8 µM)", "outline": "as §1"}, "Axitinib + Linsitinib": {"compound": "CNC(=O)c1ccccc1Sc1ccc2c(/C=C/c3ccccn3)n[nH]c2c1 [Axitinib] + C[C@]1(O)C[C@@H](c2nc(-c3ccc4ccc(-c5ccccc5)nc4c3)c3c(N)nccn32)C1 [Linsitinib] (partner 1 µM)", "outline": "as §1"}, "Axitinib + Dasatinib": {"compound": "CNC(=O)c1ccccc1Sc1ccc2c(/C=C/c3ccccn3)n[nH]c2c1 [Axitinib] + Cc1nc(Nc2ncc(C(=O)Nc3c(C)cccc3Cl)s2)cc(N2CCN(CCO)CC2)n1 [Dasatinib] (partner 0.075 µM)", "outline": "as §1"}}, "data": [{"cell line": "NCI-H650", "values": [{"measurement": "relative viability", "setting": "[1]; first compound 3.162 µM", "value": 0.51}, {"measurement": "relative viability", "setting": "[1]; first compound 10 µM", "value": 0.582}, {"measurement": "relative viability", "setting": "[1]; first compound 31.62 µM", "value": 0.489}, {"measurement": "relative viability", "setting": "[1]; first compound 100 µM", "value": 0.427}, {"measurement": "relative viability", "setting": "Axitinib + Olaparib; first compound 0.005 µM", "value": 0.403}, {"measurement": "relative viability", "setting": "Axitinib + Olaparib; first compound 0.01581 µM", "value": 0.389}, {"measurement": "relative viability", "setting": "Axitinib + Olaparib; first compound 0.05 µM", "value": 0.394}, {"measurement": "relative viability", "setting": "Axitinib + Olaparib; first compound 0.1581 µM", "value": 0.406}, {"measurement": "relative viability", "setting": "Axitinib + Olaparib; first compound 0.5 µM", "value": 0.444}, {"measurement": "relative viability", "setting": "Axitinib + Linsitinib; first compound 0.005 µM", "value": 0.969}, {"measurement": "relative viability", "setting": "Axitinib + Linsitinib; first compound 0.01581 µM", "value": 0.866}, {"measurement": "relative viability", "setting": "Axitinib + Linsitinib; first compound 0.05 µM", "value": 0.916}, {"measurement": "relative viability", "setting": "Axitinib + Linsitinib; first compound 0.1581 µM", "value": 0.713}, {"measurement": "relative viability", "setting": "Axitinib + Linsitinib; first compound 0.5 µM", "value": 0.759}, {"measurement": "relative viability", "setting": "Axitinib + Dasatinib; first compound 0.005 µM", "value": 0.496}, {"measurement": "relative viability", "setting": "Axitinib + Dasatinib; first compound 0.01581 µM", "value": 0.455}, {"measurement": "relative viability", "setting": "Axitinib + Dasatinib; first compound 0.05 µM", "value": 0.47}, {"measurement": "relative viability", "setting": "Axitinib + Dasatinib; first compound 0.1581 µM", "value": 0.436}, {"measurement": "relative viability", "setting": "Axitinib + Dasatinib; first compound 0.5 µM", "value": 0.396}]}]}
